Experimental findings from patent US20020159981A1, “Methods of controlling proliferation and differentiation of stem and progenitor cells” (Gamida-Cell Ltd., priority 1999, published 2002) are described below.

For one test, the system named is NOD/SCID mice. Kind of test: Engraftment of SCID mice by ex-vivo expanded human hematopoietic cells. The test is classed as in vivo. Conditions: for Engraftment Colonies: 2 weeks ex-vivo, TEPA + Cytokines. The method, then: Engraftment of SCID mice by ex-vivo expanded human hematopoietic cells: Cord blood purified CD34^+ cells either fresh or following 2 or 4 weeks of ex-vivo culture (plus or minus TEPA) were injected into NOD/SCID mice essentially as described in (56). After 4 weeks, the mice were sacrificed and their femora and tibias were excised and the bone marrow flushed with a syringe fitted with a 25 gauge needle. A single cell suspension was prepared, the cells were washed and an aliquot counted with Trypan blue. In order to quantitate engrafted cells of human origin, cells were stained with FITC-conjugated anti CD45 antibodies and PE-conjugated either anti CD34, CD19 or CD33 antibodies. Anti CD45 antibodies recognize human, but not mouse, cells, and thus, indicates the human origin of the cells. The proliferation and differentiation potential of the engrafted cells was assayed by cloning bone marrow cells in semi-solid medium under conditions that allow specifically growth of human derived colonies essentially as described in (56).

The subject of test [1] is lethally irradiated Balb/c×C57B1/6 F1 mice. The experiment in a line: Hematopoietic reconstitution of lethally irradiated mice with ex-vivo expanded bone marrow cells. The test is classed as in vivo. The settings on record: compared to fresh cells or cells expanded without TEPA. The method, then:
Hematopoietic reconstitution of lethally irradiated mice—fresh vs. ex-vivo expanded cells: Three month old female Balb/c×C57B1/6 F1 mice were lethally irradiated (1000 rad) and transplanted one day later with 1×10^5 fresh bone marrow cells or the yield of 1×10^5 bone marrow cells expanded ex-vivo either with or without TEPA for 3 to 5 weeks, as detailed in Table 7. Peripheral blood WBC counts were performed on weekly basis.

For test [2], the system named is Murine erythroleukemia cells (MEL). The experiment in a line: HMBA-induced differentiation and growth of erythroleukemic cells. The test is classed as cell-based, mouse. The settings on record: day 3 (Table 2). The method, then:
Mouse erythroleukemic cells (MEL): MEL cells are erythroblast like cells. Following treatment with several chemicals (differentiation inducers) the cells undergo erythroid differentiation and accumulate hemoglobin. […] At day 3 of the culture, the total number of cells and the percentage of hemoglobin-containing cells were determined (Table 2).
On day 3, total cell number and hemoglobin containing (benzidine positive) cells were determined.

For `NCCNCCNCCNCCN` [TEPA, tetraethylenepentamine], the “Engraftment Colonies” value is recorded as 330 per 2 × 10^5 SCID BM cells with NOD/SCID mice (CB 2 10% FCS (first listed)), 100 per 2 × 10^5 SCID BM cells with NOD/SCID mice (CB 3 10% FCS), 350 per 2 × 10^5 SCID BM cells in the test on NOD/SCID mice (CB 6 1% FCS) and 420 per 2 × 10^5 SCID BM cells with NOD/SCID mice (CB 6 10% FCS). Moreover, the “cord blood samples that succeeded to engraft the animals” value in the test with NOD/SCID mice (of 6 samples expanded ex-vivo, without TEPA 2 out of 6) worked out at 6. Also, the WBC recovery result in test [1] was “faster”. In addition, the “HMBA-induced differentiation of MEL cells” value in test [2] is on record as “inhibited”.
